Laboratory results taken from patent US20050119253A1, “Method of treating mental disorders using of D4 and 5-HT2A antagonists, inverse agonists or partial agonists” (priority 2003, published 2005).

What was measured:
[1] = metabolite from biotransformation in the liver; cited from earlier work
Beta1 = Beta1 (Homo sapiens, UniProt P08588); test: pKi of test compounds, adrenergic receptor Beta1; assay type: binding
Alpha2A = molecular target: T1, Alpha2A (Homo sapiens, UniProt P08913); test: pKi of test compounds, adrenergic receptor Alpha2A; assay type: binding
T1 sequence (P08913 1-465): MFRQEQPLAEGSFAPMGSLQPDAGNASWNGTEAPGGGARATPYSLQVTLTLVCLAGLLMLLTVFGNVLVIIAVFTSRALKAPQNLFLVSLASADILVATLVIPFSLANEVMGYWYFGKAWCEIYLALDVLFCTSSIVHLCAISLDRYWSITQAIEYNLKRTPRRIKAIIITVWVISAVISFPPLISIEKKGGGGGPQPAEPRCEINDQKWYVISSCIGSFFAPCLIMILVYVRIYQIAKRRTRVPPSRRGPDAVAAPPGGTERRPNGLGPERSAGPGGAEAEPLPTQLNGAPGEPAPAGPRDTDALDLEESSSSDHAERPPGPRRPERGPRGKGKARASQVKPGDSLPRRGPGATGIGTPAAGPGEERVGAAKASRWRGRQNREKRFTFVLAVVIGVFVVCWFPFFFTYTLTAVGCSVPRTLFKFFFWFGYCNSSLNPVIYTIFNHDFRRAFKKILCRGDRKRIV

other 5HT receptors = test: pKi towards other 5HT receptors; assay type: binding; settings: 5-HT1A, 1B, 1D, 1E, 1F, 5-HT2B, 5-HT2C, 5-HT6 (rat), 5-HT7 (rat)
Beta2 = Beta2 (Homo sapiens, UniProt P07550); test: pKi of test compounds, adrenergic receptor Beta2; assay type: binding
Sequence of Beta2 (P07550 whole entry): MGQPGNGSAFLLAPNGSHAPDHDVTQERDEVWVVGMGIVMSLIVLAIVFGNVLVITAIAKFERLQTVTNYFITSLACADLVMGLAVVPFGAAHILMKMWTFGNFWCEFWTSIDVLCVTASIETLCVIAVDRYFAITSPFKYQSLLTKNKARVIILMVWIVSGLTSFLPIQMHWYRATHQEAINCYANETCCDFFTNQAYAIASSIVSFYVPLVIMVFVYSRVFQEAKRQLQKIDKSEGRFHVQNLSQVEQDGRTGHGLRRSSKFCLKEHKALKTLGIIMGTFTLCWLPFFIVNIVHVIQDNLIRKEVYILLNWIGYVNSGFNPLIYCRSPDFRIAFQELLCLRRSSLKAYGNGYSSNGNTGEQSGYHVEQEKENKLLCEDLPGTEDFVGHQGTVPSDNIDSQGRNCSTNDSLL

5HT1F = 5HT1F (Homo sapiens, UniProt P30939); test: pKi of test compounds, 5HT1F receptor; assay type: binding
Sequence of 5HT1F (P30939 whole entry, species assumed): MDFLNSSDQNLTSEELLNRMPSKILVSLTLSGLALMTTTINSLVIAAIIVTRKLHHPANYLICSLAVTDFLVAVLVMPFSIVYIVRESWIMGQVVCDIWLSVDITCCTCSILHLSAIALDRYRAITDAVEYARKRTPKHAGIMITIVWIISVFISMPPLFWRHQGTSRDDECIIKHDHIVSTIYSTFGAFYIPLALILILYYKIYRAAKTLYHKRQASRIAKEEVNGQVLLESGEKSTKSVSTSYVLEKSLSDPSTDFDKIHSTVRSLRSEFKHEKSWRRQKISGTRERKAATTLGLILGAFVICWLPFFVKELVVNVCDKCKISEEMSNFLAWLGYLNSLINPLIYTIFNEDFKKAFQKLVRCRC

5HT1D = 5HT1D (Homo sapiens, UniProt P28221); test: pKi of test compounds, 5HT1D receptor; assay type: binding; settings: read-out: pKi 5HT1D (converted)
Sequence of 5HT1D (P28221 whole entry, species assumed): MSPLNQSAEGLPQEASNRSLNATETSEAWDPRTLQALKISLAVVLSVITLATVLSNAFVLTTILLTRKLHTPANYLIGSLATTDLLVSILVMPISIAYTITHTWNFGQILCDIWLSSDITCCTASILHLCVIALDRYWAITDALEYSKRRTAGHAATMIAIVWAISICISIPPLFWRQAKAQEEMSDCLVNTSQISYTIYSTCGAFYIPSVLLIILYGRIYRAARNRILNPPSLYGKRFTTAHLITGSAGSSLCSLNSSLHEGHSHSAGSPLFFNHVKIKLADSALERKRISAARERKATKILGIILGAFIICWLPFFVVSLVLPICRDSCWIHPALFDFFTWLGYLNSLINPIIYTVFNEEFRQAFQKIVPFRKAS

other Dopamine receptors = test: pKi towards other Dopamine receptors; assay type: binding; settings: D1, D2 and D3
From the text: ‘Other Dopamine receptors’ are, for instance, D1, D2 and D3.
pKi values of test compounds for Dopamine receptors can be measured using commonly known assays.

Alpha2C = molecular target: T2, Alpha2C (Homo sapiens, UniProt P18825); test: pKi of test compounds, adrenergic receptor Alpha2C; assay type: binding
T2 sequence (P18825 1-462): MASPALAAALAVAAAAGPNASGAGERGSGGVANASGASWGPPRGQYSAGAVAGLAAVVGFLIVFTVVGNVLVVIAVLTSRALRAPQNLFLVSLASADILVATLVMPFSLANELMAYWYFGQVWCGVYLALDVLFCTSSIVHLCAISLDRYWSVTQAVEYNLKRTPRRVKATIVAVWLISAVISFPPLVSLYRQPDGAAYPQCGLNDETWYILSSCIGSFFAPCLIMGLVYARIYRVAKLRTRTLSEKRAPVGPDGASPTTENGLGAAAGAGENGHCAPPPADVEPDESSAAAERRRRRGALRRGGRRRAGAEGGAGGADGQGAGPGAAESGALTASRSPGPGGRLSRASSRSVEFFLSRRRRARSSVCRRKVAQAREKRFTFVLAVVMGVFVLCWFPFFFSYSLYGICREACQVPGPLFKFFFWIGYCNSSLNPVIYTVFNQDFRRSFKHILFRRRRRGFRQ

D3 = D3 (Homo sapiens, UniProt P35462); test: pKi of test compounds, D3 receptor; assay type: binding; settings: read-out: pKi D3 (converted)
Sequence of D3 (P35462 whole entry): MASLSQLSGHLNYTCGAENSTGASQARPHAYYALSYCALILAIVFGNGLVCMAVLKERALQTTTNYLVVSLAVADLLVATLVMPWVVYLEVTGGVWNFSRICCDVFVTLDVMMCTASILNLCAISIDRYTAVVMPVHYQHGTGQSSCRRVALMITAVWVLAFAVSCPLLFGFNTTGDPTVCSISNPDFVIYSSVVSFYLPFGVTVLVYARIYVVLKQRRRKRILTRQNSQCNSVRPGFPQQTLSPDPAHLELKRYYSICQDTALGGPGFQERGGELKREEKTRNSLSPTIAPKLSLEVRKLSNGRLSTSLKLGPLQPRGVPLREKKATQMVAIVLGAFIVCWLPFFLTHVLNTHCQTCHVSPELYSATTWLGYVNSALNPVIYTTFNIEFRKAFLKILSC

5HT1B = 5HT1B (Homo sapiens, UniProt P28222); test: pKi of test compounds, 5HT1B receptor; assay type: binding
Sequence of 5HT1B (P28222 whole entry, species assumed): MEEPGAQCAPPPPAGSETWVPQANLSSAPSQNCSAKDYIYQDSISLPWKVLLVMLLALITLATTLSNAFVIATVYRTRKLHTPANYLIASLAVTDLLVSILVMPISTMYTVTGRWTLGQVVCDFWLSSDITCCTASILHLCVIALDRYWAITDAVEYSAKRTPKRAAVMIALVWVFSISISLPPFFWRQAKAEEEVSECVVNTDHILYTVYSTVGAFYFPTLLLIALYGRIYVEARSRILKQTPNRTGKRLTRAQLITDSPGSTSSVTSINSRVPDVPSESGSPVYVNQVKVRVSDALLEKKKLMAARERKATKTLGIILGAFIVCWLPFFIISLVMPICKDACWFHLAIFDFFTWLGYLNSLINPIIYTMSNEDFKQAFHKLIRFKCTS

5HT1E = 5HT1E (Homo sapiens, UniProt P28566); test: pKi of test compounds, 5HT1E receptor; assay type: binding
Sequence of 5HT1E (P28566 whole entry, species assumed): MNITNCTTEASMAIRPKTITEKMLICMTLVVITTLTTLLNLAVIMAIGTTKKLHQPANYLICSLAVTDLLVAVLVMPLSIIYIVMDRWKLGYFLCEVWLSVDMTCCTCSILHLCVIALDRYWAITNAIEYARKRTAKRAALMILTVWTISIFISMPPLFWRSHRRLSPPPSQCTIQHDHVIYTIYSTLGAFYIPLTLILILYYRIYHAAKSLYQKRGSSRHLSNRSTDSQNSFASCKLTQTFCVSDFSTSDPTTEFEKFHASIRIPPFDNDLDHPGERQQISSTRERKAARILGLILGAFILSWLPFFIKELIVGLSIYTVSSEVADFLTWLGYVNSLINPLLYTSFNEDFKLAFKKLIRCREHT

5HT1A = molecular target: T3, 5HT1A (Homo sapiens, UniProt P08908); test: pKi of test compounds, 5HT1A receptor; assay type: binding
T3 sequence (P08908 1-422): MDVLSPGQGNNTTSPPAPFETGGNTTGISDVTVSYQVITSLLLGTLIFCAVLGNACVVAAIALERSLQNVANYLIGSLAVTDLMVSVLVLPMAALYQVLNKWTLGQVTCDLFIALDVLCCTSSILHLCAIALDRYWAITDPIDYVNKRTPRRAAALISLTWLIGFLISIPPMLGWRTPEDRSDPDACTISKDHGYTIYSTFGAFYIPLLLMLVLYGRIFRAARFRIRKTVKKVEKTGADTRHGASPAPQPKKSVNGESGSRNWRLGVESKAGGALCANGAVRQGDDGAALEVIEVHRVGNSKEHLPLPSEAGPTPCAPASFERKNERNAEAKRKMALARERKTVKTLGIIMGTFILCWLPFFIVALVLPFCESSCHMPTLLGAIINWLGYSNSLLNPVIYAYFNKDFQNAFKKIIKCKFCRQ

D4 receptor = molecular target: T4, D4 receptor (Homo sapiens, UniProt P21917); test: pKi of test compounds, D4 receptor; assay type: binding; settings: D4; read-out: pKi D4 (converted)
T4 sequence (P21917 1-419): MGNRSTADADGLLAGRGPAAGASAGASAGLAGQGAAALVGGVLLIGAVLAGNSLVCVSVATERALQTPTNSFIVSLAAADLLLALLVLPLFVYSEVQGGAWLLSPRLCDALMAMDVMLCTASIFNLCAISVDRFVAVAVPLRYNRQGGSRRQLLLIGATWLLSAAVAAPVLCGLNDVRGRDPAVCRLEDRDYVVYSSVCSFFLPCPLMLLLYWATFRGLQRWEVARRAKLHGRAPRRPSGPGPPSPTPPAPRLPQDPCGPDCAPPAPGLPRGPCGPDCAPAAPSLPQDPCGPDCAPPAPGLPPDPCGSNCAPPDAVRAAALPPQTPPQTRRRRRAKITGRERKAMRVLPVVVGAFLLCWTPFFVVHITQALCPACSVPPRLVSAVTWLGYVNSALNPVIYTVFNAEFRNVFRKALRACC

acute schizophrenia = settings: neuroleptic responsive inpatients with acute schizophrenia; cited from earlier work

Sequence of Beta1 (P08588 whole entry): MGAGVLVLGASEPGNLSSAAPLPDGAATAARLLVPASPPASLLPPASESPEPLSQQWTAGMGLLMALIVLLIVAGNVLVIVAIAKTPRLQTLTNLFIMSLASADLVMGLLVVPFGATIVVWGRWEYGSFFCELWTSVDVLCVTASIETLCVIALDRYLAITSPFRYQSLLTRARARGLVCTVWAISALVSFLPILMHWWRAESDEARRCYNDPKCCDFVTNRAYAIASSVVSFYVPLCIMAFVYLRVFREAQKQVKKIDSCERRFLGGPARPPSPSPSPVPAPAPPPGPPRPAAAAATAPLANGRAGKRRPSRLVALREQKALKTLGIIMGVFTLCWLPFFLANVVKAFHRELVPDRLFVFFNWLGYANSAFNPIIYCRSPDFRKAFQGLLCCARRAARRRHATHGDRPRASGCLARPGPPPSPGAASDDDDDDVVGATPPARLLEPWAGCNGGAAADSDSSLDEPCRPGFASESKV

Cc1nc2n(c(=O)c1CCN1CCC(c3noc4cc(F)ccc34)CC1)CCCC2O (stereo not drawn) [9-hydroxyrisperidone]
pharmacological activity and intensity relative to parent risperidone [1]: of the same pharmacological activity and intensity as parent risperidone

NC(=O)C1(N2CCCCC2)CCN(CCCC(=O)c2ccc(F)cc2)CC1 [Pipamperone, 1′-[3-(p-Fluorobenzoyl)propyl]-[1,4′-bipiperidine]-4′-carboxamide]
Ki (Beta1): > 1000 nM | Ki (Alpha2A): 100 to 1000 nM | pKi value towards other 5HT receptors (other 5HT receptors): less than 8 | Ki (Beta2): > 1000 nM | Ki (5HT1F): > 1000 nM | Ki (5HT1D): 100 to 1000 nM | pKi value towards other Dopamine receptors (other Dopamine receptors): less than 8 | Ki (Alpha2C): 100 to 1000 nM | Ki (D3): 100 to 1000 nM | Ki (5HT1B): 100 to 1000 nM | Ki (5HT1E): > 1000 nM | Ki (5HT1A): > 1000 nM | Ki (D4 receptor): 1 to 10 nM

Clc1ccc(N2CCN(Cc3c[nH]c4ncccc34)CC2)cc1 [L-745,870]
antipsychotic efficacy (acute schizophrenia): ineffective as an antipsychotic
